Assay: gradient 5% acetonitrile 3 min, to 50% in 2 min, to 85% in 15 min, held 3 min, 100 µL/min
Settings: column: Zorbax Extend-C18 2.1 x 50 mm; eluents: water / acetonitrile, 0.1% formic acid
Summary of the method: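 The system's dead and dwell volumes were 40 μL and 900 μL, with a Zorbax Extend-C18 column (2.1 × 50 mm, 1.8 μm) run at 100 μL/min in water and acetonitrile containing 0.1% formic acid each. Pure standards were analyzed in mixtures of ~100 molecules by HPLC–quadrupole time-of-flight mass spectrometry in positive and negative ionization mode. Retention time was assigned from computationally picked, manually inspected adduct peaks.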

RP-LC retention time [s]	SMILES
694	CCc1ccc2nc(NC3=NCN(CCCOC)CN3)nc(C)c2c1
856	CCOc1ccc(-c2noc(CSc3nccn3-c3ccccc3)n2)cc1OC
1160	Cc1ccc(-c2noc(Cn3c(=O)n(Cc4ccccc4)c(=O)c4sccc43)n2)cc1C
682	CCN1CCN(c2nc(F)c3c(c2F)S(=O)(=O)CCN3Cc2ccccc2)CC1
645	Cn1cc(CCN2CCN(S(=O)(=O)c3ccc(Cl)cc3)CC2)c2cccnc21
929	Cc1nc(OCC(=O)NCc2cccc(Cl)c2)c2c(C)c(C)oc2n1
831	CC(=O)N1CCc2ccccc2C1C(=O)NC1CCCCCC1 (centres undefined)
879	C#CCNc1ccc(C(=O)OCC)cc1
1150	COc1ccc(CNS(=O)(=O)c2c(C)sc(C)c2-c2cc(C(F)(F)F)on2)cc1
602	CCn1c(=O)c(SCC(=O)NCCCN2CCCCC2C)nc2ccccc21 (centres undefined)
779	O=C(CCc1ccc2c(c1)CN(C(=O)C1COc3ccccc3O1)CCO2)N1CCOCC1 (centres undefined)
754	O=C1CCCc2cc(S(=O)(=O)N3CCC(C(=O)N4CCN(c5ccccc5)CC4)CC3)ccc2N1
1190	O=C(Nc1ccc(-c2nc(-c3ccccc3)co2)cc1)c1ccc(Br)o1
833	O=C(c1ccc2ccccc2n1)N1CCN(C(=O)c2nnn3c2COC(c2ccccc2)C3)CC1 (centres undefined)
1040	COc1ccccc1N1CCN(c2cc(SCC(=O)Nc3c(C)cc(C)cc3C)ncn2)CC1
984	COc1ccc(NC(=O)c2cn(-c3cc(N4CCCCC4)ncn3)cn2)cc1Cl
831	O=C(Cc1ccccc1Br)NC1CCN(c2cc(-c3ccc(Cl)cc3)[nH]n2)C1 (centres undefined)
748	COc1ccc(-c2cn3c(CC(=O)N4CCc5ccccc54)csc3n2)cc1OC
830	Cc1cccc(NC(=O)C2CCN(S(=O)(=O)c3ccc4c(c3)sc(=O)n4C)CC2)c1C
631	C=CCn1nc2c(C)c(C)nc(-c3cccnc3)n2c1=O
604	CC1CC(C)CN(CCCNC(=O)CCCOc2cc(=O)n(C)c3ccccc23)C1 (centres undefined)
703	Cn1c(=O)c2ccn(CC(=O)NCc3cccc(Cl)c3)c2n(C)c1=O

RP-LC retention time [s]	SMILES
597	CS(=O)(=O)N1C[C@H]2CCN(Cc3ccc(F)cc3Cl)C[C@H]21
1260	Cc1cccc(-c2noc(Cc3nc(-c4ccc(F)cc4)cs3)n2)c1
1070	Cc1ccc(Cn2nc3ccc(S(=O)(=O)N4CCCCCC4)cn3c2=O)cc1C
725	Cc1noc(-c2nn(C)c3c2CN(C(=O)c2ccccc2Br)CC3)n1
740	CC(C)CN1C(=O)c2ccccc2C(C(=O)NCCCN2CCCC2=O)C1c1cccs1 (centres undefined)
595	COCc1cc(=O)n(CC(=O)NCc2ccccc2)c(N)n1
1000	Cc1ccc2c(c1)N(S(C)(=O)=O)CCC(C(=O)Nc1ccc(Cl)cc1C)O2 (centres undefined)
886	CCC(=O)N(C1CCOCC1)C1CCN(S(=O)(=O)c2ccc(Cl)cc2)CC1
653	COc1cccc(NC(=O)N2CCC(c3cc(N)on3)CC2)c1
1280	Cc1ccsc1C(=O)N1CC(Oc2cccc(-c3nc(-c4ccccc4)no3)c2)C1
634	CNC(=O)C1CCCN(c2nc3ncn(CC(=O)Nc4ccccc4F)c(=O)c3s2)C1 (centres undefined)
957	O=C1N(c2ccccc2)CC12CCN(S(=O)(=O)c1ccccc1)CC2
1100	Cc1ccc(C)c(S(=O)(=O)N2CCC(c3noc(COCC4CC4)n3)CC2)c1
818	Cc1nc(-c2csc(S(=O)(=O)N3CCC(C(=O)N4CCCCC4)CC3)c2)no1
620	CCN1CCN(c2cc(C)c3cc(NC(=O)CCC4CCCC4)ccc3n2)CC1
673	COc1cc(O)ccc1-c1nc2cc(C)ccn2c1Nc1ccccc1C
784	CC(C)c1ccc(NC(=O)Cn2ncc3c(c2=O)N(C2CC2)C(=O)CS3)cc1
758	O=S(=O)(c1ccc(Cl)cc1)N1CCN(c2ccnc3cc(Cl)ccc23)CC1
776	O=C(c1[nH]nc2c1CCc1ccccc1-2)N1CCC(c2noc(-c3ccccn3)n2)C1 (centres undefined)
566	Cc1ccn2cc(C(=O)N3CCN(C4CCCCC4)CC3)nc2c1
900	CCc1cccc(NS(=O)(=O)c2cc(-c3c(CC)noc3NC(C)=O)ccc2C)c1
963	CC(C)Oc1ccc(C(=O)N(Cc2ccc(Br)o2)C2CCS(=O)(=O)C2)cc1 (centres undefined)

RP-LC retention time [s]	SMILES
1030	Cn1nccc1-c1cccc(-c2noc(-c3cccc(C#N)c3)n2)c1
930	CC(C(=O)NCCc1c[nH]c2ccc(Cl)cc12)n1c2ccccc2c2cnn(C)c(=O)c21 (centres undefined)
772	COCCNC(=O)c1cc(-c2ccc(C)c(C)c2)[nH]c1C
698	Cc1ccc(NC(=O)Cc2nnc(-c3cnccn3)o2)cc1
683	CC1CCc2[nH]nc(C(=O)NC3CC3)c2C1 (centres undefined)
810	CCn1c(=O)c2c(cc(C)n2C)n(CC(=O)Nc2cc(Cl)ccc2C)c1=O
884	CCCCNC(=O)CN1c2ccc(F)cc2-c2ccccc2S1(=O)=O
720	CCN(CC)CCn1c(=O)c(Cc2ccc(OC)cc2)nc2ccccc21
1000	Cc1cccc(-c2nnc(Cc3nc(C(C)(C)C)no3)o2)c1
1150	COc1ccc(CN2C=C(C(=O)OCc3noc(C4CCCCC4)n3)C(C)=NS2(=O)=O)cc1
870	Cc1ccc(-c2nc(-c3ccc4nncn4c3)no2)cc1
969	CCn1cc(-c2nc(C)c(C(=O)NCc3ccc(F)cc3F)s2)c2cccnc21
1020	Cc1ccc(C)c(N2CCN(C(=O)Cn3cccc3-c3nnc(C4CC4)o3)CC2)c1
893	Cn1nc(C2CCN(S(=O)(=O)c3cc(F)cc(F)c3)CC2)n(C2CCCC2)c1=O
1190	COc1ccc(N2CCN(S(=O)(=O)c3cc(-c4cc(C(F)(F)F)on4)cs3)CC2)cc1
731	O=C(c1ccc(Cl)s1)N1CC(F)(F)C[C@H]1COc1cccnc1
921	CC(C(=O)NCCc1c[nH]c2ccc(Cl)cc12)C1CCN(S(=O)(=O)c2cccs2)CC1 (centres undefined)
869	O=C(Cc1nnc(-c2cccc(Br)c2)o1)NCc1ccc(F)cc1Cl
951	O=C1c2ccccc2C(=O)N1CCCCN(C(=O)c1cccs1)c1ccc(F)cc1F
869	Cc1ccc(-c2cc(NC(=O)C3CC3)on2)s1
690	CC(C)OCCCNC(=O)CCc1nnc2c3cc(-c4ccccc4)nn3ccn12
1260	CC(C)CCNS(=O)(=O)c1ccc(-c2nc(C(C)C)cs2)s1

RP-LC retention time [s]	SMILES
624	Cc1nnc(CNC(=O)OC(C)(C)C)n1-c1ccccc1
870	O=C(Cn1ccc2ccc(N3CCOCC3)nc21)NCc1ccc(F)cc1F
846	CCCn1cc(C2=CCN(C(=O)Nc3ccc4c(c3)OCCO4)CC2)c2cccnc21
657	CC1(C(=O)NC2CCCC2)Cn2c(ccc2-c2ccco2)C(=O)N1Cc1cccnc1 (centres undefined)
757	COc1ncccc1CNS(=O)(=O)c1ccccc1
944	CC1=C(c2ccc(Cl)cc2)S(=O)(=O)N=C1N1CCCN(C(=O)CC(C)(C)C)CC1
1190	C=CCn1c2ccccc2c2nnc(SC(CC)C(=O)Nc3nc(-c4ccccc4)cs3)nc21 (centres undefined)
640	CC(=O)Nc1cc(C(=O)NCc2ccc(OC(C)C)cc2)c2ccc(C)nc2c1
663	O=C(CN1C(=O)C(C(=O)N2CCCCCC2)Sc2ccccc21)N1CCN(c2ccccc2)CC1 (centres undefined)
699	Cc1ccc(Oc2cccc(NC(=O)Cc3noc4ccccc34)c2)nn1
1020	O=c1n(Cc2ccc(Cl)cc2)nc2ccc(S(=O)(=O)N3CCCCCC3)cn12
712	Cc1ccccc1S(=O)(=O)N1CCC2(CC1)NCCN=C2NCc1cccc(F)c1
678	COCC(=O)N1CCCN(c2cc(=O)n(C(C)C)c(=O)n2C(C)C)CC1
758	COc1ccc(NC(=O)C2CC(=O)N(CCc3c[nH]c4ccc(F)cc34)C2)cc1 (centres undefined)
825	CCCn1nc(CNC(=O)c2ccsc2)c2ccccc21
569	CCOc1ccc(S(=O)(=O)N2CCC(C(=O)N3CCN(C)CC3)CC2)cc1
1200	COc1ccc(OC)c(NC(=O)c2cc3nc(-c4cccs4)cc(C(F)(F)F)n3n2)c1
692	CCCN1CCN(C(=O)C(C)n2nc(C)c3nn(-c4ccccc4)c(-n4cccc4)c3c2=O)CC1 (centres undefined)
623	COC(=O)c1nnn(-c2ccc(C)cc2)c1C(=O)OC
1010	CCOc1ccc(C(=O)N2CCCC2c2nc(-c3ccc(F)cc3F)no2)cc1 (centres undefined)
629	CC1CCN(CCNC(=O)c2nnc(-c3ccc(S(=O)(=O)N4CCOCC4)cc3)o2)CC1
610	CS(=O)(=O)N(Cc1ccncc1)C1CN(C(=O)C2(c3ccccc3)CC2)C1

SMILES	RP-LC retention time [s]
COc1ccc2[nH]cc(C3=CCNCC3)c2c1	648

— the METLIN SMRT retention time set (Domingo-Almenara et al. 2019)
